In patent publication US20100143441A1 (OsteoGeneX Inc., priority 2008, published 2010):

Columns and labels:
SOST = SOST (Mus musculus, UniProt Q99P68); conditions: predetermined dose for a complete dosing schedule, micro-CT versus control mouse
Procedure: (§1) A general method of identifying SOST antagonists involves evaluating the effects of antagonist candidates on bone formation under controlled conditions. Preferably bone formation is determined using micro-CT techniques on live animals. Preferred animals include rodents, more preferred are primates. Femur, tibia and vertebrae bones are particularly useful subjects for such study.
Briefly, the test animal is treated with a predetermined dose of a SOST antagonist candidate.
This can be accomplished by any suitable method, but is preferably performed on live animals to analyze the bone mineral content. […] A SOST antagonist candidate suitable for use as a SOST antagonist is identified by noting significant bone formation in the test animal when compared to the control animal. Bone formation in the test bone(s) of the test animal can be 0.5%, 1, 5, 10, 20, 30, 40, 50, 60, 70, 80, 90, 100, 200, 300, 400, 500, 600, 700, 800, 900 or 1000% more bone formation than is present in the same bones of the control animal. More preferably, bone formation can be 20%, most preferably 30% or 40%. Where necessary, levels of bone formation can be calculated by determining the volume of bone formation present in each animal. Calculations can be performed by constructing a 3-dimensional image of the bone formation and calculating the volume from the image with the aid of e.g., histomorphometry. […]

Wnt pathway = conditions: Wnt+Sclerostin+2.5, 6.3, 12.5 or 25 ng nortriptyline; compared with Wnt only and Wnt+Sclerostin
Procedure: as §1

Sequence of SOST (Q99P68 24-211): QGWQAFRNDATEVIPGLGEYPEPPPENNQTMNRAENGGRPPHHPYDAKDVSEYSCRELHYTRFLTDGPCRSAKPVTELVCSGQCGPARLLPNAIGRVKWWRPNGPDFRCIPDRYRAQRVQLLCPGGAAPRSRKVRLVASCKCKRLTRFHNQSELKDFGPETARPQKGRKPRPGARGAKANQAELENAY

For `CNCCC=C1c2ccccc2CCc2ccccc21` [nortriptyline], the “bone growth (quantity of bone formation present)” value (SOST) was “promoting bone growth” and the “modulation of the Wnt pathway” value (Wnt pathway) was “modulating the Wnt pathway”.
